In patent US20230235374A1, “High Throughput Assays for Detecting Translation Readthrough Inducers” (The Trustees of the University of Pennsylvania, priority 2021, published 2023):

Tests used:
Assay type in all cases: binding, shrimp (Artemia salina)
[1] = tested on: rRNA fragments I-IV of 80S-IRES; test: RNaseH fragment assay, 80S-IRES
Experimental: (§1) RNaseH Fragment Assay. Total RNA was prepared from the ^3H-AzAt photoaffinity labeled ribosome by phenol-chloroform extraction. RNA: DNA duplexes were formed by incubating total RNA (0.2 μM) with an oligonucleotide pair (1 μM of each, sequences shown Table 1), flanking a specific RNA region, in 22.8 μL of water at 95° C. for 2 min, followed by annealing at 50° C. for 30 s and quenching on ice. Six units (1.2 μL) of RNase H (NEB) and 6 μl of 5×RNase H Reaction Buffer were next added to the RNA: DNA duplex and incubated at 37° C. for 1 hour, followed by phenol-chloroform extraction of RNA. The digested RNA was separated on 12% TBE-Urea PAGE gel, and the target band along with the adjacent upper and bottom gels were sliced by a 2 mm gel cutter. The gel slices were crushed and the ^3H labeled rRNA fragment was extracted in water by vigorously shaking at 70° C. for 30 min, or by overnight extraction in elution buffer (0.3M sodium acetate, 0.25% SDS, 1 mM EDTA). The slurry was removed by centrifugation and the eluted ^3H labeled rRNA in the supernatant was quantified. The stoichiometry of AzAt photoincorporation was calculated based on a gel recovery yield of 20±2%, determined using an authentic sample of [^3H]-Gln-tRNA^Gln.
(§2) Testing the functional pertinence of AzAt photolabeling of 18S A1195, 28S-A3093, 28S-A2672, and 28S-2669. An RNAse H fragment assay was employed to determine whether the potential functionally significant sites identified by LASER-seq correspond to ataluren binding sites relevant for termination activity. In this assay, oligonucleotide hybridization, RNase H digestion and polyacrylamide gel electrophoresis (PAGE) were used to determine the stoichiometry of [^3H]-AzAt photoincorporation into the three rRNA fragments that together include the four nucleotides of interest: Fragment I, 18S-A1195; Fragment II, 26S-A3093; Fragment III, 26S-A2669 and 26S-A2672 (Table 5). The separate addition of four potential competitors of AzAt binding (eRF1 alone, the stably bound eRF1.eRF3.GDPNP complex, ataluren, and the ataluren-like TRID GJ072) was used to test how these affected such photoincorporation. These experiments, the results of which are summarized in Table 5, were performed at two different AzAt concentrations. eRF1 and eRF1.eRF3.GDPNP effects were measured using 300 μM AzAt, paralleling the LASER-Seq PAL experiments.

[2] = tested on: rRNA fragments I-IV of Stop-POST5; test: RNaseH fragment assay, Stop-POST5
Experimental: as §1, §2

[3] = tested on: Small RNAs within Stop-POST5 complex; test: AzAt photoincorporation into small RNAs (urea-PAGE, RNAse H fragments)
Experimental: FIG. 11 illustrates 8% Urea-PAGE resolution of small RNAs.
Photoaffinity labeling with [^3H]-AzAt. Samples in Buffer 4, typically 20 μL, were incubated in the dark (20 min for Stop-POST5 and 80S-IRES complexes, 2 min for release factors) with various concentrations of [^3H]-AzAt at 37° C., transferred to a UV-transparent cuvette which was covered with parafilm to prevent evaporation, and irradiated in a Rayonet photochemical reactor equipped with 300 nm UV lamps for 5 min at room temperature. This was followed by quenching with 2 mM DTT at 37° C. for 5 min under ambient light. The irradiation time gave complete photolysis of the phenyl azide moiety in AzAt. Photolysis was also complete at 5 min in the presence of 1 mM ataluren, ruling out internal filtering effects.
Stop-POST5 and 80S-IRES complexes. 1 μM solutions of either Stop-POST5 or 80S-S.IRES, determined by A260, were photolabeled by [^3H]-AzAt. The sample was then either directly purified by ultracentrifugation through a sucrose cushion to determine the photoincorporation stoichiometry in the complex, or subjected to phenol/chloroform extraction to determine the photoincorporation stoichiometry in the total RNA. To determine the photoincorporation background arising from incomplete removal of noncovalently bound photolyzed AzAt, AzAt was prephotolysed for 5 min before adding to the complex, followed by the 20 min incubation in dark at 37° C. and subsequent sucrose cushion purification or RNA extraction as described above.
as §1
Small RNAs. AzAt photoincorporation into the 4 small RNAs (CrPV-IRES, 5.8S rRNA, 5S rRNA, and tRNA) contained within POST5 was examined by one-dimensional (1D) urea-PAGE analysis, by RNA-Seq, and by RNAse H fragment assay (FIG. 11).

[4] = 80S-IRES, PAL, 300 μM AzAt, alone or plus competing ligand named as label
[5] = Stop-POST5, PAL, 300 μM AzAt, alone or plus competing ligand named as label
[6] = PAL, 300 μM AzAt, alone or plus competing ligand named as label

Substance: eRF1/eRF3/GDPNP: stably bound ternary complex of eRF1, eRF3 and GDPNP used as competing ligand
- Photoincorporation yields into 18S A1195/ I: 18S 1151-1206 [1, 4]: 0.56 ± 0.06 mole %
- Photoincorporation yields into 26S-A2669:A2672/ III: 26S 2638-2702 [1, 4]: 0.94 ± 0.23 mole %
- Photoincorporation yields into 26S-A3093/ II: 26S 3069-3113 [1, 4]: 0.55 ± 0.12 mole %
- effect on AzAt photoincorporation into Fragment I ([1]; 80S.IRES complex): only partial inhibition
- effect on AzAt photoincorporation into Fragments II and III ([1]; 80S.IRES complex): essentially no inhibition
- Photoincorporation yields into RNAse H Fragment IV: 26S 1413-1476 ([1]; 80S.IRES, PAL, 300 μM AzAt, alone or plus competing ligand named as label): 0.30 ± 0.03%
- Photoincorporation yields into 26S-A2669:A2672/ III: 26S 2638-2702 [2, 5]: 0.19 ± 0.02 mole %
- Photoincorporation yields into 26S-A3093/ II: 26S 3069-3113 [2, 5]: 0.18 ± 0.10 mole %
- Photoincorporation yields into RNAse H Fragment IV: 26S 1413-1476 ([2]; Stop-POST5, PAL, 300 μM AzAt, alone or plus competing ligand named as label (eRF1 2 μM, eRF3 4 μM, GDPNP 1 mM)): 0.20 ± 0.01%
- Photoincorporation yields into 18S A1195/ I: 18S 1151-1206 ([2]; Stop-POST5, PAL, 300 μM AzAt, alone or plus competing ligand named as label (eRF1 2 μM, eRF3 4 μM, GDPNP)): 0.07 ± 0.03 mole %
- effect on AzAt photoincorporation into Fragments I, II, and III ([2]; Stop-POST5 complex): strongly inhibited
- effect on AzAt labeling of CrPV-IRES ([3]; 300 μM AzAt): partial but significant reduction
- Photoincorporation yields into CrPV-IRES nts1-155 ([3]; PAL, 300 μM AzAt, alone (AzAt) or plus competing ligand named as label (eRF1 2 μM, eRF3 4 μM, GDPNP 1 mM)): 4.6 ± 1.4 mole %
- Photoincorporation yields into 5S rRNA [3, 6]: 1.3 ± 0.2 mole %
- Photoincorporation yields into 5.8S rRNA [3, 6]: 0.80 ± 0.02 mole %
- Photoincorporation yields into CrPV-IRES All [3, 6]: 5.4 ± 0.6 mole %
- Photoincorporation yields into CrPV-IRES nts156-221 [3, 6]: 2.9 ± 0.6 mole %
- Photoincorporation yields into CrPV-IRES nts222-278 [3, 6]: 0.08 ± 0.11 mole %
- Photoincorporation yields into tRNA^Gln [3, 6]: 2.2 ± 0.2 mole %
- effect on AzAt labeling of CrPV-IRES fragments 1-155 and 156-221 ([3]; RNAse H fragment assay): Only minor decreases
